According to paper PMC5729429, “Gimatecan exerts potent antitumor activity against gastric cancer in vitro and in vivo via AKT and MAPK signaling pathways” (Journal of Translational Medicine, 2017):

System: NCI-N87 cells
Assay: Annexin V-PE/7-AAD apoptosis assay (flow cytometry), NCI-N87
Assay type: cell-based, human
Conditions: 1000 nM, 24 h
Protocol: Apoptosis was measured by staining with phycoerythrin (PE)-annexin V and 7-amino-actinomycin (7-AAD) (BD Biosciences, Erembodegem, Belgium) for 15 min at room temperature in the dark, followed by flow cytometry (BD Biosciences) within 1 h. Apoptosis was analyzed with FlowJo 7.6 software (FlowJo, LLC, Ashland, Oregon).
Cells were treated with gimatecan (0–1 µM) and irinotecan (0–1 µM) for 24 h and stained with Annexin V-PE/7-AAD. Sums of percentages of early apoptosis (Q3) and late apoptosis (Q2) were calculated as the total apoptosis ratios. c, d Pro- and anti-apoptotic proteins including Bcl-2, Bak, PARP and cleaved PARP were assessed by western-blotting in SNU-1 and NCI-N87 cells. Western-blotting bands were quantified and normalized by ImageJ. […] They are left out because no substance is present, and they are also barely readable.

CC[C@@]1(O)C(=O)OCc2c1cc1n(c2=O)Cc2c-1nc1ccccc1c2/C=N/OC(C)(C)C [Gimatecan, 7-t-butoxyiminomethylcamptothecin]
proportion of apoptotic cells: 12.29 ± 2.24%
